Test [1] addresses T1, Sodium/iodide cotransporter (Rattus norvegicus, UniProt Q63008).
T1 sequence (Q63008 whole entry): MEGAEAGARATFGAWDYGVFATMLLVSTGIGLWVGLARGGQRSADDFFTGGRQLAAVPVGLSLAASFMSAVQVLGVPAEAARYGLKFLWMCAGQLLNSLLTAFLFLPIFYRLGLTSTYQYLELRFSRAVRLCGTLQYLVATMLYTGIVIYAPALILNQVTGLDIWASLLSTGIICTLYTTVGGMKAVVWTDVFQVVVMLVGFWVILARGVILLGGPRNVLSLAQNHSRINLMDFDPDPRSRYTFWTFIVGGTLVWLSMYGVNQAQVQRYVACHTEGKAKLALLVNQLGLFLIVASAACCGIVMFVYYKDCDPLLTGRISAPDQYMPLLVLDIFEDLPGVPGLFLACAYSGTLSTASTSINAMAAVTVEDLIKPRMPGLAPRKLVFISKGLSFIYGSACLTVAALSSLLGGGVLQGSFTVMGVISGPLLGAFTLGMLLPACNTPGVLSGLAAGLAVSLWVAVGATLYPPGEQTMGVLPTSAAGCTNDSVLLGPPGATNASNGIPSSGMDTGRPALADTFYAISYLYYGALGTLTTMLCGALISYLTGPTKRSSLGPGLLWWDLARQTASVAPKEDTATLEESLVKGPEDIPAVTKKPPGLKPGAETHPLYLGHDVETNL
Put plainly: Inhibition of sodium iodide symporter in rat FRTL5 cells assessed as decrease in sodium iodide uptake after 60 mins by scintillation counting method. It counts as cell-based, FRTL-5.

In test [2] the target is T1, Sodium/iodide cotransporter. Put plainly: Inhibition of sodium iodide symporter in rat FRTL5 cells assessed as decrease in [125I]-sodium iodide uptake after 60 mins by scintillation counting method. The test is classed as cell-based, FRTL-5.

These results are taken from ChEMBL document CHEMBL3880389, “Heterocyclic compounds as inhibitors of the sodium iodide symporter” (2014).

Turning to `F[B-](F)(F)F`, in test [1], the IC50 was determined as 750 nM.

As for `O=[N+]([O-])O`, the IC50 in test [1] was determined as 250000 nM.

Take `F[P-](F)(F)(F)(F)F.[Na+]`: the half-maximal inhibitory concentration (IC50) in test [1] was found to be 9 nM.

With `O=[N+]([O-])c1cccc(C2NCCc3c2[nH]c2ccccc32)c1` (configuration not stated), in test [2], the half-inhibitory concentration (IC50) is 300 nM.

For `Brc1cccc(C2NCCc3c2[nH]c2ccccc32)c1` (configuration not stated), in test [2], the IC50 turned out to be 400 nM.

With `[O-][Cl+3]([O-])([O-])O` [PERCHLORATE], the 50% inhibitory concentration (IC50) in test [1] was 140 nM.

On to `N#CS` [THIOCYANIC ACID], for which the half-maximal inhibitory concentration (IC50) in test [1] came out at 14000 nM.
